This passage reports EC50 results from patent US9902730B2, “Compounds and compositions as toll-like receptor 7 agonists” (NOVARTIS AG, priority 2014, dated 2018).

The assay has as its target T1, human TLR7 (Homo sapiens, UniProt Q9NYK1).
T1 construct: expressed in transfected cells
T1 sequence (Q9NYK1 27-1049): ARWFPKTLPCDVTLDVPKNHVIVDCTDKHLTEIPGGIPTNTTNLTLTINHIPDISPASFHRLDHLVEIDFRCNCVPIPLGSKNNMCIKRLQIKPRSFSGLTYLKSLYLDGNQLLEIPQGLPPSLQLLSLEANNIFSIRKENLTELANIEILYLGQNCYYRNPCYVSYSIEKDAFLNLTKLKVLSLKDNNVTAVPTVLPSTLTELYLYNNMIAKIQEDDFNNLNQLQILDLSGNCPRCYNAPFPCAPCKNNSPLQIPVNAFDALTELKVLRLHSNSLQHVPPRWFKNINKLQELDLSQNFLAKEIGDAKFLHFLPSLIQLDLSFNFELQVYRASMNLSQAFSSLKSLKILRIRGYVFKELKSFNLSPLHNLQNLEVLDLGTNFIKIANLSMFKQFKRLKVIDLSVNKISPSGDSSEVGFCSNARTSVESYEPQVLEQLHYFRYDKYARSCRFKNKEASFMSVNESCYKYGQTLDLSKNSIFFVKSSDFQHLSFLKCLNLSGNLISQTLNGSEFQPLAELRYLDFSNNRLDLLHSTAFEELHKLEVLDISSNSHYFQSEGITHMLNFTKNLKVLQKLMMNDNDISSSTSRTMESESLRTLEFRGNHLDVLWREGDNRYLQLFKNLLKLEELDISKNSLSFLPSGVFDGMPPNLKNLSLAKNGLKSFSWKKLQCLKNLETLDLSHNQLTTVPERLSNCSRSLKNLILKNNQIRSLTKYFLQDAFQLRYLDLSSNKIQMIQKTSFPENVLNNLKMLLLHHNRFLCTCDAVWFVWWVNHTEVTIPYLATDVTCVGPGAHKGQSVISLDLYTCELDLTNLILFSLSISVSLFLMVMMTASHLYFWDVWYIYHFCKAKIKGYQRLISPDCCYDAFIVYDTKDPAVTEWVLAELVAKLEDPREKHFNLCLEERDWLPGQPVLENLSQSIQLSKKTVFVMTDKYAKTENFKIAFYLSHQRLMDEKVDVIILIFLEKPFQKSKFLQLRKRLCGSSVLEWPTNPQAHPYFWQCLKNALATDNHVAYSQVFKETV
Kind of assay: Reporter gene assay (HEK293 cells with human TLR7 and NF-kB-driven luciferase reporter). In kind it is cell-based. To be noted: HEK 293 cells stably transfected with human TLR7 and NF-kB-driven luciferase reporter; 7 hours incubation; EC50 relative to activity of resiquimod set to 100%. As to the method:
Human embryonic kidney 293 (HEK 293) cells were stably transfected with human TLR7 and an NF-kB-driven luciferase reporter vector (pNifty-Luciferase). As a control assay, normal Hek293 transfected with pNifty-Luc were used. Cells were cultured in DMEM supplemented with 2 mM L-glutamine, 10% heart inactivated FBS, 1% penicillin and streptomycin, 2 μg/ml puromycin (InvivoGen #ant-pr-5) and 5 μg/ml of blasticidin (Invitrogen #46-1120). Bright-Glo™ Luciferase assay buffer and substrate were supplied by Promega #E263B and #E264B (assay substrate and buffer respectively). 384 well clear-bottom plates were supplied by Greiner bio-one (#789163-G) and were custom bar-coded plates.
Cells were plated at 25,000 cells/well in 384-well plates in a final volume of 50 μl of media. Cells were allowed to adhere to the plates after overnight (18 hours) culture at 37° C. and 5% CO2. Serially diluted experimental and positive control compounds were then dispensed to each well and incubated for 7 hours at 37° C. and 5% CO2. Cells stimulated with DMSO alone also serve as negative controls. After the incubation, 30 μl of the pre-mix assay buffer and substrate buffer were added to each well according to manufacturer's instructions. The luminescence signal was read on a CLIPR machine with an integration time of 20 seconds per plate.
Dose response curves are generated for each compound and EC50 values were determined as the concentration that gives 50% of the maximal signal.
For orientation: Reporter assays use an easily measured gene product as a stand-in for the process of interest.

As a reminder, the EC50 is the midpoint of the concentration-response curve. Low readings indicate higher potency in that assay, high ones lower potency in that assay. Take `CCCCCNc1nc(N)nc2ccn(Cc3cc(-c4nnn[nH]4)ccc3OC)c12` [Example 8, 5-(2-methoxy-5-(1H-tetrazol-5-yl)benzyl)-N4-pentyl-5H-pyrrolo[3,2-d]pyrimidine-2,4-diamine]: the response was half-maximal at 0.3 µM (EC50). This lies in the sub-micromolar range. On to `CCCCCNc1nc(N)nc2ccn(Cc3cc(P(=O)(O)O)ccc3OC)c12` [Example 19, (3-((2-amino-4-(pentylamino)-5H-pyrrolo[3,2-d]pyrimidin-5-yl)methyl)-4-methoxyphenyl)phosphonic acid], for which the EC50 worked out at 0.08 µM. Molecule `CCCCCNc1nc(N)nc2ccn(Cc3cc(/C=C/C(=O)O)ccc3OC)c12` [Example 22, (E)-3-(3-((2-amino-4-(pentylamino)-5H-pyrrolo[3,2-d]pyrimidin-5-yl)methyl)-4-methoxyphenyl)acrylic acid] came in with an EC50 of 0.7 µM. This EC50 is about 8.8-fold higher than that of the molecule before.

For `CCCC[C@@H](CO)Nc1nc(N)nc2ccn(Cc3cc(CC(=O)O)ccc3OC)c12` [Example 5, (S)-2-(3-((2-amino-4-((1-hydroxyhexan-2-yl)amino)-5H-pyrrolo[3,2-d]pyrimidin-5-yl)methyl)-4-methoxyphenyl)acetic acid], the EC50 came to 0.4 µM. For `CCCC[C@@H](CO)Nc1nc(N)nc2ccn(Cc3cc(-c4nnn[nH]4)ccc3OC)c12` [Example 10, (S)-2-((2-amino-5-(2-methoxy-5-(1H-tetrazol-5-yl)benzyl)-5H-pyrrolo[3,2-d]pyrimidin-4-yl)amino)hexan-1-ol], the EC50 was 0.2 µM. Against the preceding molecule, the EC50 is about 2-fold lower. The molecule `CCCCCNc1nc(N)nc2ccn(Cc3cc(CCc4nnn[nH]4)ccc3OC)c12` [Example 15, 5-(5-(2-(1H-tetrazol-5-yl)ethyl)-2-methoxybenzyl)-N4-pentyl-5H-pyrrolo[3,2-d]pyrimidine-2,4-diamine] came in with a half-maximal effective concentration (EC50) of 0.06 µM.

`CCCCCNc1nc(N)nc2ccn(Cc3cc(C(=O)O)ccc3OC)c12` [Example 13, 3-((2-amino-4-(pentylamino)-5H-pyrrolo[3,2-d]pyrimidin-5-yl)methyl)-4-methoxybenzoic acid]: the EC50 amounted to 0.1 µM. In the case of `CCCCCNc1nc(N)nc2ccn(Cc3cc(P(=O)(O)OC)ccc3OC)c12` [Example 20, methyl hydrogen (3-((2-amino-4-(pentylamino)-5H-pyrrolo[3,2-d]pyrimidin-5-yl)methyl)-4-methoxyphenyl)phosphonate], the EC50 stood at 0.3 µM. Against the preceding molecule, the EC50 is about 3-fold higher. To `CCCCCNc1nc(N)nc2ccn(Cc3cc(CN4CCC[C@@H]4C(=O)O)ccc3OC)c12` [Example 24, (R)-1-(3-((2-amino-4-(pentylamino)-5H-pyrrolo[3,2-d]pyrimidin-5-yl)methyl)-4-methoxybenzyl)pyrrolidine-2-carboxylic acid] belongs 0.08 µM. To `CCCCCNc1nc(N)nc2ccn(Cc3cc(C(F)(F)c4nnn[nH]4)ccc3OC)c12` [Example 16, 5-(5-(difluoro(1H-tetrazol-5-yl)methyl)-2-methoxybenzyl)-N4-pentyl-5H-pyrrolo[3,2-d]pyrimidine-2,4-diamine] belongs 0.2 µM. Molecule `CCCCCNc1nc(N)nc2ccn(Cc3cc(Cc4nnn[nH]4)ccc3OC)c12` [Example 2, 5-(5-((1H-tetrazol-5-yl)methyl)-2-methoxybenzyl)-N4-pentyl-5H-pyrrolo[3,2-d]pyrimidine-2,4-diamine] displayed an EC50 of 0.05 µM. In turn, `CCCC[C@@H](CO)Nc1nc(N)nc2ccn(Cc3cc(C(C)(C)c4nnn[nH]4)ccc3OC)c12` [Example 12, (S)-2-((5-(5-(2-(1H-tetrazol-5-yl)propan-2-yl)-2-methoxybenzyl)-2-amino-5H-pyrrolo[3,2-d]pyrimidin-4-yl)amino)hexan-1-ol] had an EC50 of 0.2 µM.

Consider `CCCCCNc1nc(N)nc2ccn(Cc3cc(OCc4nnn[nH]4)ccc3OC)c12` [Example 1, 5-(5-((1H-tetrazol-5-yl)methoxy)-2-methoxybenzyl)-N4-pentyl-5H-pyrrolo[3,2-d]pyrimidine-2,4-diamine], for which a half-maximal effect (EC50) was put at 0.1 µM. Compared with the last molecule, the EC50 is about 2-fold lower. The molecule `CCCCCNc1nc(N)nc2ccn(Cc3cc(CC(=O)O)ccc3OC)c12` [Example 4, 2-(3-((2-amino-4-(pentylamino)-5H-pyrrolo[3,2-d]pyrimidin-5-yl)methyl)-4-methoxyphenyl)acetic acid] displayed an EC50 of 0.05 µM. This EC50 lies about 2-fold lower than the previous one.

As for `CCCCCNc1nc(N)nc2ccn(Cc3ccc(CN4CCC[C@H]4C(=O)O)cc3OC)c12` [Example 25, (S)-1-(4-((2-amino-4-(pentylamino)-5H-pyrrolo[3,2-d]pyrimidin-5-yl)methyl)-3-methoxybenzyl)pyrrolidine-2-carboxylic acid], the EC50 came out at 0.008 µM. To `CCCCCCNc1nc(N)nc2ccn(Cc3cc(-c4nnn[nH]4)ccc3OC)c12` [Example 9, N4-hexyl-5-(2-methoxy-5-(1H-tetrazol-5-yl)benzyl)-5H-pyrrolo[3,2-d]pyrimidine-2,4-diamine] belongs 0.8 µM. `CCCCCNc1nc(N)nc2ccn(Cc3ccc(-c4nnn[nH]4)cc3OC)c12` [Example 14, 5-(2-methoxy-4-(1H-tetrazol-5-yl)benzyl)-N4-pentyl-5H-pyrrolo[3,2-d]pyrimidine-2,4-diamine]: the EC50 was 1.4 µM. The figure for `CCCC[C@@H](CO)Nc1nc(N)nc2ccn(Cc3cc(CCC(=O)O)ccc3OC)c12` [Example 23, (S)-3-(3-((2-amino-4-((1-hydroxyhexan-2-yl)amino)-5H-pyrrolo[3,2-d]pyrimidin-5-yl)methyl)-4-methoxyphenyl)propanoic acid] is 0.4 µM; for `CCC[C@@H](CO)Nc1nc(N)nc2ccn(Cc3cc(Cc4nnn[nH]4)ccc3OC)c12` [Example 7, (S)-2-((5-(5-((1H-tetrazol-5-yl)methyl)-2-methoxybenzyl)-2-amino-5H-pyrrolo[3,2-d]pyrimidin-4-yl)amino)pentan-1-ol] it is 0.8 µM. `CCCCCNc1nc(N)nc2ccn(Cc3cc(C(F)(F)C(=O)O)ccc3OC)c12` [Example 17, 2-(3-((2-amino-4-(pentylamino)-5H-pyrrolo[3,2-d]pyrimidin-5-yl)methyl)-4-methoxyphenyl)-2,2-difluoroacetic acid] gave an EC50 of 0.5 µM. The figure for `CCCC[C@@H](CO)Nc1nc(N)nc2ccn(Cc3cc(Cc4nnn[nH]4)ccc3OC)c12` [Example 6, (S)-2-((5-(5-((1H-tetrazol-5-yl)methyl)-2-methoxybenzyl)-2-amino-5H-pyrrolo[3,2-d]pyrimidin-4-yl)amino)hexan-1-ol] is 0.1 µM; for `CCCCCNc1nc(N)nc2ccn(Cc3cc(Cc4nnn(CC(=O)O)n4)ccc3OC)c12` [Example 3, 2-(5-(3-((2-amino-4-(pentylamino)-5H-pyrrolo[3,2-d]pyrimidin-5-yl)methyl)-4-methoxybenzyl)-2H-tetrazol-2-yl)acetic acid] it is 0.2 µM; for `CCCCCNc1nc(N)nc2ccn(Cc3cc(CC[C@@H](O)C[C@@H](O)CC(=O)O)ccc3OC)c12` [Example 18, (3R,5R)-7-(3-((2-amino-4-(pentylamino)-5H-pyrrolo[3,2-d]pyrimidin-5-yl)methyl)-4-methoxyphenyl)-3,5-dihydroxyheptanoic acid] it is 0.6 µM. To `CCCCCNc1nc(N)nc2ccn(Cc3cc(C(C)(C)c4nnn[nH]4)ccc3OC)c12` [Example 11, 5-(5-(2-(1H-tetrazol-5-yl)propan-2-yl)-2-methoxybenzyl)-N4-pentyl-5H-pyrrolo[3,2-d]pyrimidine-2,4-diamine] belongs 0.1 µM; to `CCCCCNc1nc(N)nc2ccn(Cc3cc(CCC(=O)O)ccc3OC)c12` [Example 21, 3-(3-((2-amino-4-(pentylamino)-5H-pyrrolo[3,2-d]pyrimidin-5-yl)methyl)-4-methoxyphenyl)propanoic acid], 0.4 µM.

For the molecule `CCCCCNc1nc(N)nc2ccn(Cc3ccc(OCC(=O)O)cc3OC)c12` [Example 26, 2-(4-((2-amino-4-(pentylamino)-5H-pyrrolo[3,2-d]pyrimidin-5-yl)methyl)-3-methoxyphenoxy)acetic acid], the EC50 is 0.4 µM. This lies in the sub-micromolar range.
